Experimental data from US20020034725A1, “SENSITIZATION OF CELLS TO RADIATION AND AND CHEMOTHERAPY” (priority 1996, published 2002).

Key:
[1] = molecular target: FTase (Homo sapiens, UniProt P49354+P49356); conditions: cited from earlier work
[2] = test system: H-ras; conditions: cited from earlier work
[3] = test system: Rap1A; conditions: cited from earlier work; for inhibition of Rap1A processing: whole cells
[4] = test system: wild type c-H-ras; test: Western blot of ras farnesylation in untransformed REF and MR4 cells; assay type: cell-based, rat; conditions: MR4 cells
Text: (§1) The oncogene-transfected cells used in this study were all derived from early passage rat embryo fibroblast (REF) by transfection with the pEJ plasmid containing the H-ras gene isolated from the EJ bladder carcinoma. This vector was introduced by calcium phosphate DNA transfer into primary REF, either alone or together with the pMC29 vector containing v-myc. One clone containing both the introduced H-ras gene and the v-myc genes is 3.7 (McKenna et al., 1990, Cancer Res. 50:97-102). 4R and 5R cells were obtained as rare transformants after transfection with the pEJ plasmid alone (McKenna et al., 1993, supra). MR4 cells were immortalized by transfection with an expression vector comprising v-myc linked to a neomycin-resistant selectable marker (McKenna et al., 1991, Radiat. Res. 125:283-287). REF-GG cells were obtained by transforming REF cells with a chimeric H-ras(v12) in which the CAAX motif is CVLL. All cell lines were mycoplasma free.
(§2) Cells were lysed in culture dishes with 1 x reducing Laemmli sample buffer. Samples were boiled, sheared and clarified by centrifugation at 14,000 rpm in a microfuge before storage at −20° C. Samples containing equal amounts of protein were separated on a 12% SDS polyacrylamide gel and electrophoretically transferred to nitrocellulose membranes. Membranes were blocked for 1-2 hours in PBS containing 0.1% Tween-20 and 5% powdered milk before antibody addition. Membranes were probed with monoclonal pan-ras antibody AB-4 (Oncogene Science, Uniondale, N.Y.) at a concentration of 0.5 μg/ml, or with monoclonal H-ras antibody LA069 (1:5000 dilution; Quality Biotech, Camden, N.J.). Detection of protein was accomplished using the ECL chemiluminescence kit (Amersham, Arlington Heights, Ill.). Images were digitized using an Arcus II scanner, and figures were assembled using Adobe Photoshop 3.0.

[5] = test system: H-ras^v12; test: Western blot of H-ras farnesylation in H-ras transformed REF cells (3.7, 4R, 5R); assay type: cell-based, rat; conditions: 5R cells, dose of 32 μM
Text: as §1, §2
Transformed REF cells derived from the R5 cell line were treated with 5 μm FTI-277 to establish a time course for the accumulation of unfarnesylated H-ras. Prenylated forms of ras migrate more rapidly than unprenylated ras on SDSpolyacrylamide gels (Gutierrez et al., 1989, EMBO J. 8:1093-1098; Farh et al., 1995, Arch. Biochem. Biophys. 18:113-121). This shift in motility was used to assess the prenylation status of H-ras after farnesyltransferase inhibitor treatment.

[6] = test system: H-ras^v12 CVLL; test: Western blot of prenylation of chimeric H-ras in REF-GG cells; assay type: cell-based, rat; conditions: 24 hours, preliminary results
Text: as §1
Cells were lysed in culture dishes with 1 x reducing Laemmli sample buffer. Samples were boiled, sheared and clarified by centrifugation at 14,000 rpm in a microfuge before storage at −20° C. Samples containing equal amounts of protein were separated on a 12% SDS polyacrylamide gel and electrophoretically transferred to nitrocellulose membranes. […]

[7] = molecular target: GGTase I (Homo sapiens, UniProt P49354+P53609); conditions: cited from earlier work
[8] = test system: REF-GG cells; test: SF2 by limiting dilution analysis of clonogens; assay type: cell-based, rat; conditions: 8 μM GGTI-298
Description: FIG. 14B comprises two graphs depicting clonogenic survival of REF-GG cells following treatment with GGTI-298 and irradiation. REF-GG cells were plated at 1 to 5 cells per well in microtiter plates in the absence (top panel) or presence (bottom panel) of 8 μM of the geranylgeranyltransferase inhibitor, GGTI-298. Cells were then irradiated with 2 Gray or were mock irradiated. Cells were re-fed after 24 hours with medium that contained no inhibitor, thus diluting the inhibitor to 0.8 μM. These cells were then incubated for two weeks prior to scoring for colony formation. The data are presented as the natural log of the fraction of negative wells. The surviving fraction at 2 Gray was determined from the differences in the slopes obtained by linear regression of analysis of irradiated and unirradiated cells. The surviving fraction at 2 Gray calculated for cells irradiated after GGTI-298 treatment was 0.64. Control cell surviving fraction after 2 Gray was 0.91. The correlation coefficient for linear regression analysis (r^2) was greater than 0.95 in all cases.
Cells were irradiated with the indicated doses of ionizing radiation and were treated with FTI-277 for 24 hours after irradiation (FIG. 14A). […] The shoulders of the survival curves were reduced as were the overall slopes of the survival curves. […]

[9] = test system: K-ras; test: Western blot of K-ras prenylation in SW480 and Panc-1 cells; assay type: cell-based, human; conditions: 8 μM GGTI-298 alone
Description: FIG. 17A is an image of a Western blot depicting inhibition by FTI-277 of K-ras prenylation in human SW480 colon carcinoma cells. SW480 cells were treated with the indicated concentrations of FTI-277 (μM) for 48 hours. Samples were harvested and cell lysates were analyzed by Western blotting using either a H-ras monoclonal antibody (top) or a K-ras monoclonal antibody (bottom). Arrows indicate unfarnesylated ras bands.
FIG. 18A is an image of a Western blot depicting the specific inhibition of K-ras prenylation by combined FTI-277 and GGTI-298 treatment. Log phase cultures of human pancreatic carcinoma cells (Panc-1) and colon carcinoma cells (SW480) were treated with 5 μM FTI and 8 μM GGTI 298 for 48 hours. Cell samples were then harvested and cell lysates were prepared for Western blot analysis using monoclonal antibodies to K-ras and nuclear lamin B. The electrophoretic mobility of the K-ras mutant in SW480 is slower than that of the mutant K-ras in Panc-1 cells.

For 2-hydroxyfarnesylphosphonic acid, the FTase inhibition [1] is listed as “inhibit FTase” and the H-Ras processing [2] is listed as “inhibits H-Ras processing”.

For `COC(=O)[C@H](CCSC)NC(=O)[C@H](/C=C\[C@@H](/C=C/[C@@H](N)CS)C(C)C)Cc1ccccc1` [B1086], the FTase inhibition [1] is listed as “capable of inhibiting FTase”.

In the case of `CSCC[C@H](NC(=O)c1ccc(NC[C@@H](N)CS)cc1)C(=O)O` [FTI-249], the FTase inhibition [1] is listed as “potent FTase inhibitor”.

For `CSCC[C@H](NC(=O)c1ccc(NC[C@@H](N)CS)cc1-c1ccccc1)C(=O)O` [FTI-276], the FTase inhibition [1] is given as “inhibited Ftase activity”.

In the case of `COC(=O)[C@H](CC(C)C)NC(=O)c1ccc(NC[C@@H](N)CS)cc1-c1ccccc1` [GGTI-286], the “inhibition of Rap1A processing” value [3] is listed as “potent inhibitor of posttranslational processing of Rap1A”, the “migration of endogenous wild-type c-H-ras” value [4] is listed as “no effect on the migration of this protein” and the “inhibition of farnesylated H-ras^v12 (CVLS)” value [5] is listed as “only partially inhibited”. For the same compound, the “lowest dose with effective inhibition of geranylgeranylation of chimeric H-ras^v12” value [6] was 4 µM.

In the case of `CC(C)C[C@H](NC(=O)c1ccc(NC[C@@H](N)CS)cc1-c1ccccc1)C(=O)O` [GGTI-287], the “increase in potency of inhibition of GGTase I” value ([7]; relative to GGTI-279) is given as 20 fold and the “increase in potency of inhibition of FTase” value ([1]; relative to GGTI-279) is given as 20 fold.

For `CC(C)C[C@H](NC(=O)c1ccc(NC[C@@H](N)CS)cc1-c1cccc2ccccc12)C(=O)O` [GGTI-297], the “GGTase I inhibition” value [7] is given as “inhibitors of GGTase I and FTase”, the “potency, less potent than GGTI-287” value [7] is given as 10 fold and the “selectivity for GGTase I over FTase” value ([7]; in vitro) is given as 5 fold. For the same compound, the FTase inhibition [1] was “inhibitors of GGTase I and FTase”.

For `COC(=O)[C@H](CC(C)C)NC(=O)c1ccc(NC[C@@H](N)CS)cc1-c1cccc2ccccc12` [GGTI-298], the Rap1A protein processing ([3]; concentration of 10 μM) is listed as “completely inhibiting Rap1A protein processing”, the “inhibition of Rap1A processing” value [3] is listed as “as potent as GGTI-286” and the “SF2 (surviving fraction at 2 Gray)” value [8] is listed as 0.64. The “prenylation of K-ras” value [9] was “no effect on prenylation of K-ras”, the “GGTase I inhibition” value [7] was “inhibitors of GGTase I and FTase” and the FTase inhibition [1] was “inhibitors of GGTase I and FTase”. For the same compound, the H-ras processing ([2]; concentration of 10 μM) was “without affecting H-ras processing”.

For `CC[C@H](C)[C@@H](CO[C@@H](Cc1ccccc1)C(=O)N[C@@H](CCS(C)(=O)=O)C(=O)OC)NC[C@@H](N)CS` [L-739,749], the FTase inhibition [1] is listed as “very potent inhibitors of FTase”.

For `CC[C@H](C)[C@@H](CO[C@@H](Cc1ccccc1)C(=O)N[C@@H](CCS(C)(=O)=O)C(=O)O)NC[C@@H](N)CS` [L-739,750], the FTase inhibition [1] is given as “very potent inhibitors of FTase”.

In the case of `CC[C@H](C)[C@@H](CO[C@@H](Cc1ccccc1)C(=O)N[C@@H](CCS(C)(=O)=O)C(=O)OC(C)C)NC[C@@H](N)CS` [L-744,832], the “farnesylation of endogenous H-ras” value ([4]; highest dose used) is reported as “less susceptible to farnesylation inhibition”.

In the case of `COCC[C@@H]1CN(C(=O)c2cccc3ccccc23)CCN1C[C@H](N)CS` [L-745,631], the “mode of FTase inhibition” value [1] is given as “competitive with respect to H-Ras binding to FTase” and the “FTase activity in whole cells” value ([2]; whole cells) is given as “inhibits FTase activity in whole cells”.

For `O=C(Cc1ccncc1)N1CCC(=C2c3ccc(Cl)cc3CCc3cccnc32)CC1` [SCH-44342], the “mode of FTase inhibition” value [1] is listed as “competitive inhibitor of FTase”.

In the case of (bz-(0)-His-Tyr-Ser [PD-15169], the FTase inhibition [1] is listed as “inhibits FTase activity”.

In the case of “farnesylmethyl-hydroxyphosphinylmethyl phosphoric acid”, the FTase inhibition [1] is listed as “inhibit FTase”.
